target: Murine eukaryotic translation initiation factor 4E (eIF4E, residues 28–217); meIF4E (Mus musculus, UniProt P63073); experiment: time-synchronized fluorescence quenching titration; format: binding
Sequence (P63073 28-217): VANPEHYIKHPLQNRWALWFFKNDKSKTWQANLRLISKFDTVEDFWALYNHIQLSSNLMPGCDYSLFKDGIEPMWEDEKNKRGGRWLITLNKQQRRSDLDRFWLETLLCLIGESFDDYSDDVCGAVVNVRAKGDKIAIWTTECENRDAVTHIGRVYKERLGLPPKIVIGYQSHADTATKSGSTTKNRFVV

Kd [nM] | Molecule
25.1 ± 0.6 | C[n+]1cn([C@@H]2O[C@H](COP(=O)(O)OP(=O)(O)OP(=O)(O)OC[C@H]3O[C@@H](n4ccc(N)nc4=O)[C@H](O)[C@@H]3OP(=O)(O)OC[C@H]3O[C@@H](n4cnc5c(=O)[nH]c(N)nc54)[C@H](O)[C@@H]3O)[C@@H](O)[C@H]2O)c2nc(N)[nH]c(=O)c21 [m^7GpppCpG]
22.7 ± 0.9 | C[n+]1cn([C@@H]2O[C@H](COP(=O)(O)OP(=O)(O)OP(=O)(O)OC[C@H]3O[C@@H](n4cnc5c(=O)[nH]c(N)nc54)[C@H](O)[C@@H]3OP(=O)(O)OC[C@H]3O[C@@H](n4cnc5c(=O)[nH]c(N)nc54)[C@H](O)[C@@H]3O)[C@@H](O)[C@H]2O)c2nc(N)[nH]c(=O)c21 [m^7GpppGpG]
32.8 ± 0.8 | CNc1ncnc2c1ncn2[C@@H]1O[C@H](COP(=O)(O)OP(=O)(O)OP(=O)(O)OC[C@H]2O[C@@H](n3c[n+](C)c4c(=O)[nH]c(N)nc43)[C@H](O)[C@@H]2O)[C@@H](OP(=O)(O)OC[C@H]2O[C@@H](n3cnc4c(=O)[nH]c(N)nc43)[C@H](O)[C@@H]2O)[C@H]1OC [m^7Gppp^m6AmpG]
35.2 ± 0.8 | CNc1ncnc2c1ncn2[C@@H]1O[C@H](COP(=O)(O)OP(=O)(O)OP(=O)(O)OC[C@H]2O[C@@H](n3c[n+](C)c4c(=O)[nH]c(N)nc43)[C@H](O)[C@@H]2O)[C@@H](OP(=O)(O)OC[C@H]2O[C@@H](n3cnc4c(=O)[nH]c(N)nc43)[C@H](O)[C@@H]2O)[C@H]1O [m^7Gppp^m6ApG]

Molecule | Kd [nM]
C[n+]1cn([C@@H]2O[C@H](COP(=O)(O)OP(=O)(O)OP(=O)(O)OC[C@H]3O[C@@H](n4cnc5c(N)ncnc54)[C@H](O)[C@@H]3O)[C@@H](O)[C@H]2O)c2nc(N)[nH]c(=O)c21 [m^7GpppA] | 178 ± 4.3
C[n+]1cn([C@@H]2O[C@H](COP(=O)(O)OP(=O)(O)OP(=O)(O)OC[C@H]3O[C@@H](n4cnc5c(N)ncnc54)[C@H](O)[C@@H]3OP(=O)(O)OC[C@H]3O[C@@H](n4cnc5c(=O)[nH]c(N)nc54)[C@H](O)[C@@H]3O)[C@@H](O)[C@H]2O)c2nc(N)[nH]c(=O)c21 [m^7GpppApG] | 26.6 ± 0.9

target: eIF4E (28-217) (Mus musculus (murine), UniProt P63073 28-217); experiment: fluorescence quenching titration
Sequence (P63073 28-217): as above

Molecule | Kd [nM]
GAG (XNA, m7G1; 5'-5' triphosphate between G1 and A2; 2'-O-methyl A2) [m7GpppAmpG] | 45.6 ± 1.5
GCG (XNA, m7G1; 5'-5' triphosphate between G1 and C2; 2'-O-methyl C2) [m7GpppCmpG] | 29.9 ± 0.7
GGG (XNA, m7G1; 5'-5' triphosphate between G1 and G2; 2'-O-methyl G2) [m7GpppGmpG] | 22.8 ± 0.6

From publication PMC7038993 (Nucleic Acids Research, 2020)
